Earlier results on one compound are cited in patent US20130129668A1, “Diagnosis and treatment of arthritis using epigenetics” (The Regents of the University of California, priority 2011, published 2013).

The structures appear in SMILES notation.

Data set [1] has as its system FLS. As to conditions: FLS cultured in the presence of 5-azaC for 3 months.
In data set [2] the test system is T cells.

Regarding `Nc1ncn([C@H]2C[C@H](O)[C@@H](CO)O2)c(=O)n1` [5-azaC, 5-aza-2′-deoxycytidine], the “expression of genes implicated in RA” value in data set [1] is given as “increased expression of several genes”. Besides, in data set [2], the autoreactivity result is “enhances autoreactivity” and the “expression of T cell genes (IFNα, IL-4, CD70, LFA-1)” value is reported as “affects expression of many T cell genes”.
